Data as given in patent US6335443B1, “Chemical synthesis of exochelins” (Keystone Biomedical, Inc., priority 1998, dated 2002).
Where “and” joins values, the source holds several entries; their conditions need not be identical. Equal values may be shown once.

Experiments:
[1] = Capacity to chelate iron from ferric ammonium citrate solution (reverse-phase HPLC, 450 nm); format: binding; conditions: for ferri-exochelin eluted from the HPLC column, % of the Exochelin added: absence of ferric ammonium citrate; for capacity to chelate iron (in words): ferric iron in solution; for exochelin eluted from the column in the ferri form: presence of ferric ammonium citrate, 10-fold molar excess of iron
Method: A. Capacity to Chelate Iron. To determine if the synthetic desferri-Exochelin 772SM(R) could chelate iron, as does the native form, the Exochelin was dissolved in 0.1% TFA containing ferric ammonium citrate at a 10-fold molar excess of iron to Exochelin. The solution was then loaded on a Bondapak Phenyl 125 Å 10 μm (3.9×300 mm) HPLC column and the Exochelin was subjected to reverse-phase HPLC (High Pressure Liquid Chromatography) on a Rainin (Woburn, Mass.) HPXL system. The Exochelin was eluted with a 0-100% gradient of a buffer consisting of 0.1% TFA and 50% acetonitrile at a flow rate of 1 ml/min. The ferri-exochelins were monitored at 220-nm and 450-nm absorbance. The mass of ferri-exochelin was assayed by measuring the area under the peak at 450-nm and applying a conversion factor derived from assaying known amounts of ferri-exochelin 772SM(R).
A. Capacity to Chelate Iron. The capacity of synthetic Exochelin 772SM(S) to chelate iron from a solution containing a 10-fold molar excess of ferric iron (ferric ammonium citrate) was assayed as described above.

[2] = biological target: T1, 40% iron-saturated human transferrin (Homo sapiens, UniProt P02787); test: Capacity to remove iron from 40% iron-saturated human transferrin; format: biochemical
[3] = biological target: holo-transferrin (92% iron-saturated human transferrin) (Homo sapiens, UniProt P02787); test: Capacity to remove iron from holo-transferrin (92% iron-saturated human transferrin); format: biochemical; conditions: Fe3+:desferri-Exochelin 10:1
Method: (§1) A. 40% Iron-Saturated Human Transferrin. To assess the capacity of the 3 different desferri-Exochelins to remove iron from 40% iron-saturated human transferrin, each of them was incubated for 1, 3, and 24 hours with 40% iron-saturated transferrin such that the ratio of Fe^3+: desferri-Exochelin equaled 10:1. The incubation was carried out in PBS, pH 7.4. Afterwards, the Exochelin and transferrin were separated from each other by centrifugation through a 10,000 dalton cut-off filter. The transferrin (mass 76,000 daltons) was completely excluded by this filter whereas 85% of the Exochelin (mass<1,000) was recovered in the filtrate. To determine the total amount of exochelin recovered, the exochelin in the filtrate was saturated with a 20:1 molar excess of ferric ammonium citrate and subjected to reverse-phase HPLC as described above. To determine the amount of iron-saturated Exochelin in the filtrate at each time point, the filtrate was subjected to reverse-phase HPLC without the addition of iron. The % iron-saturation was calculated as follows: [formula]
B. Holo-Transferrin (92% Iron-Saturated Human Transferrin). To assess the capacity of the 3 different desferri-Exochelins to remove iron from holo-transferrin (92% iron-saturated human transferring, each of them was incubated for 1, 3, and 24 h with 92% iron-saturated transferrin such that the ratio of Fe^3+: desferri-Exochelin equaled 10:1, as in the aforementioned study with 40% iron-saturated transferrin. The % iron-saturation of the Exochelins was assayed as above.

ferri-Exochelin 758SM = test: Capacity to remove iron from a different Exochelin species (Ferri-Exochelin 758SM); format: binding; conditions: for % of Calculated Iron-Saturation at Equilibrium 0 h / % of Calculated Iron-Saturation at Equilibrium 1 h / % of Calculated Iron-Saturation at Equilibrium 0 hour / % of Calculated Iron-Saturation at Equilibrium 1 hour: assuming comparable affinities for iron; for % of Calculated Iron-Saturation at Equilibrium 0 hour / % Iron-Saturation 0 hour / % of Calculated Iron-Saturation at Equilibrium 1 hour / % Iron-Saturation 1 hour: Table 2; for affinity for iron (in words): removal of iron from ferri-Exochelin 758SM within 1 h
Method: C. Capacity to Remove Iron from a Different Exochelin Species. To assess the affinity of the synthetic desferri-Exochelin 772SM(R) for iron, its capacity to remove iron from a different Exochelin species, ferri-Exochelin 758SM, was evaluated. The capacity of synthetic and native desferri-Exochelin 772SM(R) to remove iron from ferri-Exochelin 758SM was also evaluated and compared. Either native or synthetic desferri-Exochelin 772SM(R) were independently mixed with ferri-Exochelin 758SM. The amount of iron acquired in 1 hour by the desferri-Exochelins was assayed by subjecting the Exochelin to reverse-phase HPLC on a phenyl column, as described above, and the area under the 450 nm absorbance peak was measured. The amount of iron-Exochelin was then calculated using a conversion factor derived from assaying known amounts of ferri-Exochelin 772SM(R).
C. Capacity to Remove Iron from a Different Exochelin Species. To assess the affinity of the synthetic desferri-Exochelin 772SM(S) for iron, its capacity to remove iron from a different exochelin species, ferri-Exochelin 758SM was evaluated. The capacity of synthetic desferri-Exochelin 772SM(S) and native desferri-Exochelin 772SM(R) to remove iron from ferri-Exochelin 758SM was also evaluated and compared. Either synthetic desferri-Exochelin 772SM(S) or native desferri-Exochelin 772SM(R) was mixed with ferri-Exochelin 758SM. The amount of iron acquired by the desferri-exochelins after 1 hour was assayed by subjecting the molecule to reverse-phase HPLC on a phenyl column, as described above, and the area under the 450 nm absorbance peak was measured. The amount of iron-exochelin was then calculated using a conversion factor derived from assaying known amounts of ferri-Exochelin 772SM(R) and ferri-Exochelin 772SM(S).

[4] = biological target: T1, 40% iron-saturated human transferrin; test: Capacity to remove iron from 40% iron-saturated human transferrin; format: biochemical; conditions: Fe3+:desferri-Exochelin 10:1, PBS pH 7.4
Method: as §1

[5] = biological target: human apotransferrin (<0.7% iron-saturated) (Homo sapiens, UniProt P02787); test: Control incubation with human apotransferrin (<0.7% iron-saturated); format: biochemical; conditions: apotransferrin 38 mg/ml
Method: as §1
C. Apotransferrin (<0.7% Iron-Saturated Human Transferrin). As a control, the three desferri-exochelins were incubated for 3 h and 24 h with human apotransferrin (<0.7% iron-saturated) at a concentration of 38 mg/ml, the same concentration of protein as in the study utilizing 92% iron-saturated transferrin in B above. None of the desferri-exochelins acquired appreciable amounts of iron (Table 6).

[6] = listed as synthetic desferri-Exochelin 772SM(R)
[7] = listed as synthetic desferri-exochelin 772SM(R)
[8] = listed as Synthetic Desferri-Exochelin 7728M(R)
[9] = mixed with ferri-Exochelin 758SM
[10] = listed as Synthetic Desferri-Exochelin 772SM(R)
[11] = listed as synthetic Exochelin 772SM(S)
[12] = listed as Synthetic Desferri-Exochelin 772SM(S)
[13] = listed as synthetic desferri-exochelin 772SM(S)

T1 sequence (P02787 20-698): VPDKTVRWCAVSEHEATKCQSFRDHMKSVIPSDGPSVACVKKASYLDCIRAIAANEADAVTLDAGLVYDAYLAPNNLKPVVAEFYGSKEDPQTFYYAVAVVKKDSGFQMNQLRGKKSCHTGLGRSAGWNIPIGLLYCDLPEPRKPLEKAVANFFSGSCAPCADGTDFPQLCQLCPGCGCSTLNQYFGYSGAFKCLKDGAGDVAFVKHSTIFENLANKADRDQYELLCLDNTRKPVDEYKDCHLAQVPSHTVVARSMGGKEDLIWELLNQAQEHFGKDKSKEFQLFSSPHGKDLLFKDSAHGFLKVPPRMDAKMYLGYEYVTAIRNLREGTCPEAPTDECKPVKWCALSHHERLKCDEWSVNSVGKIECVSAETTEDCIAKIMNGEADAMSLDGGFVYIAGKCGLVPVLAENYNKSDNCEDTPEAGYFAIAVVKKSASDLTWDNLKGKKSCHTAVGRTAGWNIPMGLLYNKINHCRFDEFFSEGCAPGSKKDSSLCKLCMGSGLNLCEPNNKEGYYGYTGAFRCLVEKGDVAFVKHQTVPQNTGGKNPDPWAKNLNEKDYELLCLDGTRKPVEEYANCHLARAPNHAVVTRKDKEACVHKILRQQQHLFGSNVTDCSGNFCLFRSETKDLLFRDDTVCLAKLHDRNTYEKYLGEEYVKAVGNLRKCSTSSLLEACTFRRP
human apotransferrin (<0.7% iron-saturated), sequence (P02787 20-698): as above
holo-transferrin (92% iron-saturated human transferrin), sequence (P02787 20-698): as above

## COC(=O)CCCCCC(=O)N(O)CCCCC(NC(=O)C1COC(c2ccccc2O)=N1)C(=O)OC(C)CC(=O)NC1CCCCN(O)C1=O [Synthetic 772SM(R), Exochelin 772SM(R)]
[1]; [6]
  ferri-exochelin eluted from the HPLC column, % of the Exochelin added: 1.08%
  exochelin eluted from the column in the ferri form: 100%
[1]; [7]
  capacity to chelate iron (in words): rapidly chelates ferric iron in solution
[2]; Fe3+:desferri-Exochelin 10:1, PBS pH 7.4, listed as Synthetic Desferri-Exochelin 772SM(R)
  Iron-Saturation 0 h: 1.1%
[3]; [8]
  Iron-Saturation 0 h: 1.1%
  Iron-Saturation 1 h: 13.6%
  Iron-Saturation 3 h: 31.5%
  Iron-Saturation 24 h: 60.0%
[3]; [7]
  Iron-Saturation 24 h: 60.0%
ferri-Exochelin 758SM; Table 1, 0 h, 17.3 µg 772SM(R), Experiment II
  % of Calculated Iron-Saturation at Equilibrium 0 h: 2.0%
ferri-Exochelin 758SM; Table 1, 0 h, 26.1 µg 772SM(R), Experiment I
  % of Calculated Iron-Saturation at Equilibrium 0 h: 2.7%
ferri-Exochelin 758SM; Table 1, 0 h, mixed with ferri-Exochelin 758SM
  % Iron-Saturation 0 h: 1.1%
ferri-Exochelin 758SM; Table 1, 17.3 µg 772SM(R), Experiment II
  % of Calculated Iron-Saturation at Equilibrium 1 h: 90.2%
ferri-Exochelin 758SM; Table 1, 26.1 µg 772SM(R), Experiment I
  % of Calculated Iron-Saturation at Equilibrium 1 h: 81.3%
ferri-Exochelin 758SM; Table 1, listed as synthetic Exochelin 772SM(R)
  % of Calculated Iron-Saturation at Equilibrium 1 h: 81.3% and 90.2%
ferri-Exochelin 758SM; Table 1, mixed with ferri-Exochelin 758SM, 17.3 µg 772SM(R), Experiment II
  % Iron-Saturation 1 h: 48.6%
ferri-Exochelin 758SM; Table 1, mixed with ferri-Exochelin 758SM, 26.1 µg 772SM(R), Experiment I
  % Iron-Saturation 1 h: 33.5%
ferri-Exochelin 758SM; Table 1, mixed with ferri-Exochelin 758SM, listed as synthetic Exochelin 772SM(R)
  % Iron-Saturation 1 h: 33.5% and 48.6%
ferri-Exochelin 758SM
  % of Calculated Iron-Saturation at Equilibrium 0 hour: 2.3%
  % of Calculated Iron-Saturation at Equilibrium 1 hour: 90.7%
  affinity for iron (in words): very high affinity for iron
ferri-Exochelin 758SM; [9]
  % Iron-Saturation 0 hour: 1.1%
  % Iron-Saturation 1 hour: 42.9%
ferri-Exochelin 758SM; listed as synthetic Exochelin 772SM(R)
  % of Calculated Iron-Saturation at Equilibrium 1 hour: 90.7%
ferri-Exochelin 758SM; mixed with ferri-Exochelin 758SM, listed as synthetic Exochelin 772SM(R)
  % Iron-Saturation 1 hour: 42.9%
[4]; [10]
  Iron-Saturation 1 h: 6.8%
  Iron-Saturation 3 h: 12.8%
  Iron-Saturation 24 h: 39.2%
[4]; [7]
  Iron-Saturation 24 h: 39.2%
[5]; [10]
  Iron-Saturation 0 h: 1.1%
  Iron-Saturation 3 h: 5.2%
  Iron-Saturation 24 h: 6.9%

## COC(=O)CCCCCC(=O)N(O)CCCCC(NC(=O)C1COC(c2ccccc2O)=N1)C(=O)OC(C)CC(=O)NC1CCCCN(O)C1=O [Synthetic 772SM(S), Exochelin 772SM(S)]
[1]; [11]
  ferri-exochelin eluted from the HPLC column, % of the Exochelin added: 1.03%
  exochelin eluted from the column in the ferri form: fully saturated with iron
[1]; listed as synthetic desferri-Exochelin 772SM(S)
  capacity to chelate iron (in words): rapidly chelates iron in solution
[2]; Fe3+:desferri-Exochelin 10:1, PBS pH 7.4, listed as Synthetic Desferri-Exochelin 772SM(S)
  Iron-Saturation 0 h: 1.0%
[3]; [12]
  Iron-Saturation 0 h: 1.0%
  Iron-Saturation 1 h: 18.1%
  Iron-Saturation 3 h: 15.5%
  Iron-Saturation 24 h: 47.2%
[3]; [13]
  Iron-Saturation 24 h: 47.2%
ferri-Exochelin 758SM
  % of Calculated Iron-Saturation at Equilibrium 0 hour: 2.3%
  % of Calculated Iron-Saturation at Equilibrium 1 hour: 89.6%
  affinity for iron (in words): very high affinity for iron
ferri-Exochelin 758SM; [9]
  % Iron-Saturation 0 hour: 1.0%
  % Iron-Saturation 1 hour: 39.7%
ferri-Exochelin 758SM; [11]
  % of Calculated Iron-Saturation at Equilibrium 1 hour: 89.6%
ferri-Exochelin 758SM; mixed with ferri-Exochelin 758SM, listed as synthetic Exochelin 772SM(S)
  % Iron-Saturation 1 hour: 39.7%
[4]; [12]
  Iron-Saturation 1 h: 14.2%
  Iron-Saturation 3 h: 13.8%
  Iron-Saturation 24 h: 35.3%
[4]; [13]
  Iron-Saturation 24 h: 35.3%
[5]; [12]
  Iron-Saturation 0 h: 1.0%
  Iron-Saturation 3 h: 5.0%
  Iron-Saturation 24 h: 4.1%
